Here are results for 3 molecules from PMC2796602 (Journal of the American Chemical Society, 2009).

The subject of assay [1] is hypoxia-induced gene expression in MCF7 cells. Kind of assay: Gene expression profiling with Affymetrix Human Gene ST 1.0 microarrays. The class given is cell-based. Particulars: 300 μM DFO.
Assay [2] has as its target GST-tagged CH1 domain of human p300 (aa residues 323-423) (Homo sapiens, UniProt Q09472). Kind of assay: SPR binding to immobilized p300-CH1-GST.
A further assay has as its target p300-CH1-GST fusion (Homo sapiens, UniProt Q09472). Kind of assay: CD spectroscopy of p300-CH1-GST fold. Conditions: CD spectra.
A further assay relates to mice. Conditions: cited from earlier work.
Another assay has as its system MCF7 cells. Kind of assay: Cell viability assay. The class given is cell-based. Conditions: Homo sapiens, MCF7, 24 h.
The next assay concerns HIF-1α levels in cells. In words: Western blot of HIF-1α levels. The class given is cell-based, human. Particulars: 200 nM, 300 μM DFO.
Assay [3] has as its target p300-CH1-GST/HIF-1α C-TAD complex (Homo sapiens, UniProt Q09472). Kind of assay: Fluorescence polarization competition assay. In kind it is binding.
Assay [4] deals with p300-CH1-GST fusion protein (GST-tagged CH1 domain of human p300, aa residues 323-423) (human, UniProt Q09472 323-423). In words: fluorescence polarisation.
Chain of p300-CH1-GST fusion protein (GST-tagged CH1 domain of human p300, aa residues 323-423) (Q09472 323-423): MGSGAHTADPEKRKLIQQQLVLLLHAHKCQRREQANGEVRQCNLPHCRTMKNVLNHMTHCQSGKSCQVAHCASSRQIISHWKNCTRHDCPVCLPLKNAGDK

Where a name gives a salt, the structure may show the parent alone. No end group written: not given here.

Chain of GST-tagged CH1 domain of human p300 (aa residues 323-423) (Q09472 323-423): as above
Chain of p300-CH1-GST/HIF-1α C-TAD complex (Q09472 323-423, one chain of several): as the sequence (Q09472 323-423) above
Chain of p300-CH1-GST fusion (Q09472 323-423): as above

As to `CC(=O)N(O)CCCCCNC(=O)CCC(=O)N(O)CCCCCNC(=O)CCC(=O)N(O)CCCCCN` [DFO, desferrioxamine mesylate], in assay [1], the “number of transcripts affected (2-fold or more) by DFO treatment alone” value amounted to 580 and the “number of transcripts induced by at least 4-fold (P < 0.01)” value is 43.
For `CN1C(=O)[C@]2(Cc3cn([C@]45C[C@@]67SS[C@@](CO)(C(=O)N6[C@H]4Nc4ccccc45)N(C)C7=O)c4ccccc34)SS[C@@]1(CO)C(=O)N2C` [compound 2, chetomin], the Kd in assay [2] came to 540 nM. The “off-rate (Kd)” value in assay [2] (SPR, 100 μM DTT) turned out to be 0.0033 s⁻¹. For the same molecule, the “concentration causing structural changes / unfolding of p300-CH1-GST” value at p300-CH1-GST fusion came out at 1 µM. For the same molecule, the “effect on vascularization in mice” value in the assay on mice is given as “inhibit vascularization in mice”. The GI50 with MCF7 cells is 180 ± 40 nM. Also, the “levels of HIF-1α in hypoxic cells” value with HIF-1α levels in cells is “remained constant”. Besides, in assay [3], the 50% inhibitory concentration (IC50) was found to be 540 ± 180 nM.
On to SMDESGLPQLTSYDCEVNAPIQGSRNLLQGEELLRALDQVN (peptide, UniProt Q16665 786-826, looked up, also: fluorescein label, position not given here) [fluorescein-labeled C-TAD domain of human HIF-1α (residues 786-826)], for which the binding result in assay [4] is given as “binds”.
